The values that follow come from patent publication US7655676B2, “Use of amide derivative of GE 2270 factor A3 for the treatment of acne” (Naicons S.C.A.R.L., priority 2002, dated 2010).

The subject of assay [1] is Staphylococcus epidermidis. The experiment in a line: MIC in vitro, Staphylococcus epidermidis (Table 1). It counts as cell-based. Particulars: ATCC 12228, MH. The source says:
(§1) In particular, bacterial strains which should not be affected by topical administration of the anti-acne candidate compound are Staphylococcus aureus, Staphylococcus epidermidis, and Streptococcus pyogenes strains.
(§2) The tests have been carried out in comparison with antibiotic GE 2270 and four representative compounds (B, C, D and E) described in U.S. Pat. No. 5,599,791.

The next assay relates to Propionibacterium acne. The experiment in a line: MIC in vitro, Propionibacterium acne strains (Table 1). The format is cell-based, Propionibacterium acnes.
Text: as §1, §2

For a further assay, the system named is Staphylococcus aureus. The experiment in a line: MIC in vitro, Staphylococcus aureus (Table 1). The format is cell-based.
Text: as §1, §2

For a further assay, the system named is Streptococcus pyogenes. The assay can be described thus: MIC in vitro, Streptococcus pyogenes (Table 1). It counts as cell-based. The settings on record: C 203, MH.
Text: as §1, §2

Assay [2] concerns clinical isolates of P. acnes displaying antibiotic-resistant phenotypes. The experiment in a line: MIC against clinical isolates of P. acnes displaying antibiotic-resistant phenotypes (Table 2). Particulars: for Cumul. %: resistant isolates. The format is cell-based, Propionibacterium acnes.
Text: (§3) MIC50 and MIC90 means minimum inhibitory concentration capable of inhibiting 50% and 90%, respectively, of the strains tested.
Assay [3] concerns clinical isolates of P. acnes displaying antibiotic-sensitive phenotypes. The experiment in a line: MIC against clinical isolates of P. acnes displaying antibiotic-sensitive phenotypes (Table 3). It counts as cell-based, Propionibacterium acnes. Particulars: Cutibacterium acnes.
Text: as §3

Converted amounts (≈) assume the structure as drawn. “And” between values parts separate entries of the source, which are not always exact repeats. Identical values can stand only once.

Take GE 2270: the MIC is under 0.125 µg/mL in assay [1]; under 0.125 µg/mL with Propionibacterium acne (ATCC 6919, Wilkins Chalgren (WC)); under 0.125 µg/mL against Propionibacterium acne (ATCC 6922, WC); under 0.125 µg/mL in the assay on Propionibacterium acne (ATCC 25746, WC); <0.125 µg/mL and 0.125 µg/mL with Propionibacterium acne (clinical isolate, WC (one table line per isolate)); under 0.125 µg/mL with Propionibacterium acne (clinical isolate, medium not given). Also, the MIC against Staphylococcus aureus (MRSA, MH) is under 0.125 µg/mL; in the assay on Staphylococcus aureus (Smith ATCC 19636, MH + 30% bovine serum), 0.25 µg/mL; against Staphylococcus aureus (Smith ATCC 19636, Mueller Hinton (MH)), 0.06 µg/mL; in the assay with Streptococcus pyogenes, 0.25 µg/mL.

The molecule `CC[C@H]1OC(=O)[C@H](C)[C@@H](O[C@H]2C[C@@](C)(OC)[C@@H](O)[C@H](C)O2)[C@H](C)[C@@H](O[C@@H]2O[C@H](C)C[C@H](N(C)C)[C@H]2O)[C@](C)(O)C[C@@H](C)C(=O)[C@H](C)[C@@H](O)[C@]1(C)O` [Erythromycin] registered an MIC50 in assay [2] (Cutibacterium acnes) of 1020 µg/mL (≈ 1400 µM). Also, the MIC90 in assay [2] (Cutibacterium acnes) was 2050 µg/mL (≈ 2790 µM); in assay [3], 0.125 µg/mL (≈ 0.17 µM). The “N° isolates” value is on record as 1 in assay [2] (resistant isolates with MIC 512 μg/ml), 11 in assay [2] (resistant isolates with MIC 1024 μg/ml) and 3 in assay [2] (resistant isolates with MIC 2048 μg/ml). Besides, the Cumul. % is on record as 7% in assay [2] (cumulative at MIC 512 μg/ml), 80% in assay [2] (cumulative at MIC 1024 μg/ml) and 100% in assay [2] (cumulative at MIC 2048 μg/ml).
